Experiments:
ADAMTS4 = ADAMTS4 (Homo sapiens (Human), UniProt O75173); details: previous studies; cited from earlier work
ADAMTS5 mRNA = ADAMTS5 mRNA level (qRT-PCR) in MI rats; format: in vivo, rat; details: PPS-treatment
Method: At day 0 to 3 (median 2) after surgery, infarct size was quantified by echocardiography using the Vevo2100 system (Visualsonics Inc, Canada) and magnetic resonance imaging (MRi) using a 9.4 T/210 mm/ASR horizontal bore magnet (Agilent Technologies, Inc., USA). Initially, echocardiography was performed to select moderate to large infarcts ranging approximately 40 to 50%. Thereafter, infarct sizes were exactly measured by late-enhancement gadolinium MRi analyses (Bohl S., et al. American Journal of Physiology, 2009; 296 (4): H1200-H1208) and stratified into small infarcts (stratum 1: <43%, stratum 2: 43-48%), and large infarcts (stratum 3: 48-53%, stratum 4: >53%). The rats in each MI stratum and sham group were randomized to receive intervention or control treatment. The intervention group was treated with 6 mg/kg of sodium PPS (Interfarm AS, Norway), while the control group received vehicle (0.9% NaCl), both injected subcutaneously every third day starting from post-operative day 8-10.
The mRNA levels of the ADAMTS versicanases ADAMTS1, -4, -5, -8, and -20 (Shiomi T, et al. Pathology International 2010; 60(7):477-96), versican, aggrecan, syndecan-4, tissue inhibitor metalloprotease (TIMP)-3, and membrane-type (MT)4-MMP, were quantified in rat left ventricle by qRT-PCR, as previously described in Example 1.

Chain of ADAMTS4 (O75173 213-837, species assumed): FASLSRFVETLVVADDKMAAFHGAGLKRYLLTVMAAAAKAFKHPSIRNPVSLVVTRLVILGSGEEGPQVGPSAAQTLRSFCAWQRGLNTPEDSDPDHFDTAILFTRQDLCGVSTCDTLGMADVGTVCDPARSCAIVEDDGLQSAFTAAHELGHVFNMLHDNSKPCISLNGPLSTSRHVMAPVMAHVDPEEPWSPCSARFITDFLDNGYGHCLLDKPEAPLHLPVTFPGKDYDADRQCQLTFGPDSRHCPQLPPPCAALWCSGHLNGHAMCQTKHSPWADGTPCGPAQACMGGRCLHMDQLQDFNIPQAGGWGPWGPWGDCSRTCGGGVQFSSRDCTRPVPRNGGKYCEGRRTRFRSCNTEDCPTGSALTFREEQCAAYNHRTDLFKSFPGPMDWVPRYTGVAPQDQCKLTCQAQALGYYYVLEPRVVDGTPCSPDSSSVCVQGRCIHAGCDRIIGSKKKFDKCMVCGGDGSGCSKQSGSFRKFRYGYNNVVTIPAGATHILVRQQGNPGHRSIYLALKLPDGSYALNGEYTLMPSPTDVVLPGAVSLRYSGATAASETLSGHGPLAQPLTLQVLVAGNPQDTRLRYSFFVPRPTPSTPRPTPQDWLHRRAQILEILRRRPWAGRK

In the case of pentosan polysulfate [PPS], the “aggrecanase activity of ADAMTS4” value (ADAMTS4) is listed as “inhibits” and the “ADAMTS5 mRNA levels” value (ADAMTS5 mRNA) is listed as “decreased”.

Reference: patent US10322143B2, “Inhibitors of ADAMTS4 or ADAMTS5 for use in preventing or treating cardiac remodeling and chronic heart failure” (Universitetet i Oslo, priority 2013, dated 2019)
